For 17 compounds, IC50, EC50 and Kd results are on record in patent publication US8618289B2 (Ambit Biosciences Corporation, priority 2008, dated 2013).

Each structure is given as a SMILES string. Structures can show the parent of a compound that is named as a salt. Where only a bound is given, the exact number is not on record here.

The subject of assay [1] is MEK1 phosphorylation in the A375 human melanoma cell line. Nature of the assay: cells. Conditions: A-375, read-out: pMEK IC50.
For assay [2], the system named is A375 cells. Kind of assay: cells. The settings on record: Homo sapiens, A-375, read-out: A375 Viability EC50.
Assay [3] concerns the target RAF kinases (Homo sapiens, UniProt P04049). Nature of the assay: biochemical.
Assay [4] deals with RAF kinases (Homo sapiens, UniProt P15056). Kind of assay: biochemical.
Chain of RAF kinases (Homo sapiens, UniProt P15056) (P15056 whole entry): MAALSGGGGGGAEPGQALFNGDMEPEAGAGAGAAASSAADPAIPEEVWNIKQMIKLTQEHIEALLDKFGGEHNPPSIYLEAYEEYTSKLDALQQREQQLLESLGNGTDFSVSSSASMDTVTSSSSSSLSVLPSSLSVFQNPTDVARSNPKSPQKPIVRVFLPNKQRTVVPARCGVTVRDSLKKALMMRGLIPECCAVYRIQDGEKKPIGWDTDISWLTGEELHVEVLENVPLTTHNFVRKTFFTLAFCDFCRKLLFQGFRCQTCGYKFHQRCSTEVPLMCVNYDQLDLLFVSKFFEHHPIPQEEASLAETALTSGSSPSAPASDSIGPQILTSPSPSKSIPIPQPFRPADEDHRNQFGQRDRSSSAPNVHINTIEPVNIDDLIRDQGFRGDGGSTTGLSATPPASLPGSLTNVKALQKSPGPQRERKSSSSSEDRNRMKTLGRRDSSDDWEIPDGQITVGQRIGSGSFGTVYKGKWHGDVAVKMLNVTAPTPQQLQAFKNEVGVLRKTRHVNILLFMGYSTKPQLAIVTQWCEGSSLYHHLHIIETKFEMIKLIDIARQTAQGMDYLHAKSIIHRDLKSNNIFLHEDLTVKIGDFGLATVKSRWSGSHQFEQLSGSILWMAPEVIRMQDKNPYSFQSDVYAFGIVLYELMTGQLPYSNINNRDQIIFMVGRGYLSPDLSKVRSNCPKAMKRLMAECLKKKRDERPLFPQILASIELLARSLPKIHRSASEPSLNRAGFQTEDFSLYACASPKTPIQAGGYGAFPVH

Chain of RAF kinases (Homo sapiens, UniProt P04049) (P04049 whole entry): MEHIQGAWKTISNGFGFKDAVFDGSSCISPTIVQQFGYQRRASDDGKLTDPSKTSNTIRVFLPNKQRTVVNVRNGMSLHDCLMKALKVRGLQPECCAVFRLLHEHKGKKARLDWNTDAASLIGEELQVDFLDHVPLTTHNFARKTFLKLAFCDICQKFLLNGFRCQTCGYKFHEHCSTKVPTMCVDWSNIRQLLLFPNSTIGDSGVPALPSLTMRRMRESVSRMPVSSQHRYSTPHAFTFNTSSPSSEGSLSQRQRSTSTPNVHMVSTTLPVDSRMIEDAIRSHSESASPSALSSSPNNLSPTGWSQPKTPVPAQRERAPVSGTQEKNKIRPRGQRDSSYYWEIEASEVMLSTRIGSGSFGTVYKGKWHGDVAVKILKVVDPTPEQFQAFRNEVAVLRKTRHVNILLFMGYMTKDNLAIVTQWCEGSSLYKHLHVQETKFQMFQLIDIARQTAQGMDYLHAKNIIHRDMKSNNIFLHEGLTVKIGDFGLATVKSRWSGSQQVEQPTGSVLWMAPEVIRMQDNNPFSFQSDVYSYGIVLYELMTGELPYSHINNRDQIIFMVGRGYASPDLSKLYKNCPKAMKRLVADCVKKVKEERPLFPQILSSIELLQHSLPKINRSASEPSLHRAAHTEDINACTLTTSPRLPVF

For orientation: IC50 means the concentration at which inhibition is half-maximal. By EC50 is commonly meant the concentration needed to bring the measured effect to its halfway point. A word on the Kd: it is the constant that tells how readily two partners part at equilibrium. On to `COc1cc2c(Sc3cccc(NC(=O)Nc4cc(C(C)(C)C)on4)c3)ncnc2cc1OCCN1CCN(S(C)(=O)=O)CC1` [Ex 81, 1-(5-tert-butylisoxazol-3-yl)-3-(3-(6-methoxy-7-(2-(4-(methylsulfonyl)piperazin-1-yl)ethoxy)quinazolin-4-ylthio)phenyl)urea], for which, in assay [1], the half-maximal inhibitory concentration (IC50) is below 250 nM. Besides, in assay [2], the concentration for a half-maximal effect (EC50) fell in the range of 250 to 500 nM. Moreover, the dissociation constant Kd in assay [3] and in assay [4] was 500 to 1000 nM in each case.

With `CCOc1cc2c(Sc3cccc(NC(=O)Nc4cc(C(C)(C)C)on4)c3)ncnc2cc1OC` [Ex 56, 1-(5-tert-butylisoxazol-3-yl)-3-(3-(6-ethoxy-7-methoxyquinazolin-4-ylthio)phenyl)urea], the IC50 in assay [1] is below 250 nM. Moreover, the EC50 in assay [2] is below 250 nM. Besides, the values for the Kd in assay [3] and in assay [4] were 250 to 500 nM and 500 to 1000 nM, respectively.

With `COc1cc2c(Oc3cccc(NC(=O)Nc4cc(C(C)(C)C)on4)c3)ncnc2cc1OCCN1CCOCC1` [Ex 35, 1-(5-tert-butylisoxazol-3-yl)-3-(3-(6-methoxy-7-(2-morpholinoethoxy)quinazolin-4-yloxy)phenyl)urea], the IC50 in assay [1] is below 250 nM. Moreover, the EC50 in assay [2] fell in the range of 500 to 1000 nM. Moreover, the dissociation constant Kd in assay [3] and in assay [4] was 250 to 500 nM in each case.

Regarding `COc1cc2c(Oc3cccc(NC(=O)Nc4cc(C(C)(C)C)on4)c3)ncnc2cc1OCCN1CCN(C)CC1` [Ex 36, 1-(5-tert-butylisoxazol-3-yl)-3-(3-(6-methoxy-7-(2-(4-methylpiperazin-1-yl)ethoxy)quinazolin-4-yloxy)phenyl)urea], the half-inhibitory concentration (IC50) in assay [1] is below 250 nM. For the same compound, the EC50 in assay [2] lay in the range of 250 to 500 nM. In addition, the Kd in assay [3] and in assay [4] was 250 to 500 nM each time.

In the case of `COCCOc1cc2c(Sc3cccc(NC(=O)Nc4cc(C(C)(C)C)on4)c3)ncnc2cc1OC` [Ex 45, 1-(5-tert-butylisoxazol-3-yl)-3-(3-(7-methoxy-6-(2-methoxyethoxy)quinazolin-4-ylthio)phenyl)urea], the half-maximal inhibitory concentration (IC50) in assay [1] was below 250 nM. Besides, in assay [2], the EC50 fell in the range of 250 to 500 nM. Besides, the equilibrium dissociation constant (Kd) is 250 to 500 nM in assay [3] and 500 to 1000 nM in assay [4].

Turning to `COc1cc2c(Oc3cccc(NC(=O)Nc4cc(C(C)(C)C)on4)c3)ncnc2cc1OCCCN1CCC(O)C1` (centres unmarked) [Ex 31, 1-(5-tert-butyl-isoxazol-3-yl)-3-(3-{7-[3-(3-hydroxy-pyrrolidin-1-yl)-propoxy]-6-methoxy-quinazolin-4-yloxy}-phenyl)-urea], the IC50 in assay [1] is below 250 nM. Also, the concentration for a half-maximal effect (EC50) in assay [2] was below 250 nM. Moreover, the Kd in assay [3] and in assay [4] was 250 to 500 nM each time.

Take `COc1cc2c(Sc3cccc(NC(=O)Nc4cc(C(C)(C)C)on4)c3)ncnc2cc1OCCN1CCOCC1` [Ex 79, 1-(5-tert-butylisoxazol-3-yl)-3-(3-(6-methoxy-7-(2-morpholinoethoxy)quinazolin-4-ylthio)phenyl)urea]: the concentration for half-maximal inhibition (IC50) in assay [1] was below 250 nM. Further, in assay [2], the EC50 is above 1000 nM. The dissociation constant Kd in assay [3] and in assay [4] was 500 to 1000 nM each time.

For `COc1cc2ncnc(Oc3cccc(NC(=O)Nc4cc(C(C)(C)C)on4)c3)c2cc1OCCN1CCN(C)CC1` [Ex 18, 1-(5-tert-butylisoxazol-3-yl)-3-(3-(7-methoxy-6-(2-(4-methylpiperazin-1-yl)ethoxy)quinazolin-4-yloxy)phenyl)urea], the half-inhibitory concentration (IC50) in assay [1] was below 250 nM. In assay [2], the concentration for a half-maximal effect (EC50) was in the range of 250 to 500 nM. In addition, the Kd in assay [3] is 500 to 1000 nM; in assay [4], 250 to 500 nM.

Regarding `COCCOc1cc2ncnc(Oc3cccc(NC(=O)Nc4cccc(C(C)(C)C)c4)c3)c2cc1OC` [Ex 119, 1-(3-tert-butylphenyl)-3-(3-(6-methoxy-7-(2-methoxyethoxy)quinazolin-4-yloxy)phenyl)urea], the IC50 in assay [1] is 250 to 500 nM. Besides, the EC50 in assay [2] is above 1000 nM. Besides, the Kd in assay [3] and in assay [4] was 250 to 500 nM throughout.

In the case of `COc1cc2ncnc(Oc3cccc(NC(=O)Nc4cc(C(F)(F)F)ncn4)c3)c2cc1OC` [Ex 146, 1-(3-(6,7-dimethoxyquinazolin-4-yloxy)phenyl)-3-(6-(trifluoromethyl)pyrimidin-4-yl)urea], the half-inhibitory concentration (IC50) in assay [1] is above 1000 nM. The 50% effective concentration (EC50) in assay [2] was above 1000 nM. Moreover, the Kd in assay [3] and in assay [4] was 250 to 500 nM in each case.

As to `COc1cc2c(Oc3cccc(NC(=O)Nc4cc(C(C)(C)C)on4)c3)ncnc2cc1OCCN1CCN(CCO)CC1` [Ex 38, 1-(5-tert-butylisoxazol-3-yl)-3-(3-(7-(2-(4-(2-hydroxyethyl)piperazin-1-yl)ethoxy)-6-methoxyquinazolin-4-yloxy)phenyl)urea], the concentration for half-maximal inhibition (IC50) in assay [1] is below 250 nM. Besides, the concentration for a half-maximal effect (EC50) in assay [2] lay within 250 to 500 nM. The equilibrium dissociation constant (Kd) in assay [3] and in assay [4] was 250 to 500 nM throughout.

Consider `COc1cc2ncnc(Oc3cccc(NC(=O)Nc4cc(C(C)(F)F)no4)c3)c2cc1OC` [Ex 152, 1-(3-(1,1-difluoroethyl)isoxazol-5-yl)-3-(3-(6,7-dimethoxyquinazolin-4-yloxy)phenyl)urea], for which the IC50 in assay [1] fell in the range of 500 to 1000 nM. Further, in assay [2], the 50% effective concentration (EC50) was in the range of 500 to 1000 nM. Further, the dissociation constant (Kd) in assay [3] and in assay [4] was 250 to 500 nM each time.

On to `COc1cc2c(Oc3cccc(NC(=O)Nc4cc(C(C)(C)C)on4)c3)ncnc2cc1O[C@@H]1CCN(C)C1` [Ex 99, (R)-1-(5-tert-butylisoxazol-3-yl)-3-(3-(6-methoxy-7-(1-methylpyrrolidin-3-yloxy)quinazolin-4-yloxy)phenyl)urea mono acetate], for which the IC50 in assay [1] fell in the range of 250 to 500 nM. Besides, the EC50 in assay [2] is above 1000 nM. Besides, the Kd in assay [3] and in assay [4] was 250 to 500 nM each time.

In the case of `COc1cc2ncnc(Oc3cccc(NC(=O)Nc4cc(C(C)(C)C)on4)c3)c2cc1OCCCN1CCC(CO)CC1` [Ex 24, 1-(5-tert-butylisoxazol-3-yl)-3-(3-(6-(3-(4-(hydroxymethyl)piperidin-1-yl)propoxy)-7-methoxyquinazolin-4-yloxy)phenyl)urea], the concentration for half-maximal inhibition (IC50) in assay [1] was below 250 nM. Also, the half-maximal effective concentration (EC50) in assay [2] lay in the range of 500 to 1000 nM. Also, the dissociation constant (Kd) in assay [3] and in assay [4] was 500 to 1000 nM in each case.

For `COc1cc2ncnc(Sc3cccc(NC(=O)Nc4cc(C(C)(C)C)on4)c3)c2cc1OCCCN1CCCCC1` [Ex 57, 1-(5-tert-butylisoxazol-3-yl)-3-(3-(7-methoxy-6-(3-(piperidin-1-yl)propoxy)quinazolin-4-ylthio)phenyl) urea], the IC50 in assay [1] was below 250 nM. For the same compound, the concentration giving a half-maximal response (EC50) in assay [2] is above 1000 nM. Besides, the dissociation constant Kd in assay [3] and in assay [4] was 500 to 1000 nM throughout.

Consider `CC(C)(C)c1cc(NC(=O)Nc2cccc(Oc3ncnc4cc5c(cc34)OCCO5)c2)no1` [Ex 14, 1-(5-tert-butylisoxazol-3-yl)-3-[3-(7,8-dihydro-[1,4]dioxino[2,3-g]quinazolin-4-yloxy)phenyl]urea hydrochloride], for which, in assay [1], the IC50 is 500 to 1000 nM. Moreover, the EC50 in assay [2] was above 1000 nM. The Kd in assay [3] was in the range of 250 to 500 nM; in assay [4] it was 500 to 1000 nM.

On to `COCCOc1cc2ncnc(Oc3cccc(NC(=O)Nc4cc(C(C)(C)C)on4)c3)c2cc1OCCOC` [Ex 12, 1-{3-[6,7-bis(2-methoxyethoxy)quinazolin-4-yloxy]phenyl}-3-(5-tert-butylisoxazol-3-yl)urea hydrochloride], for which the concentration for half-maximal inhibition (IC50) in assay [1] is below 250 nM. The concentration giving a half-maximal response (EC50) in assay [2] is 250 to 500 nM. Also, the dissociation constant (Kd) in assay [3] was in the range of 250 to 500 nM; in assay [4] it was 500 to 1000 nM.
